Assay results reported in patent US6479435B1, “Diaryl ethers and processes for their preparation and herbicidal and desiccant compositions containing them” (ISK Americas Incorporated, priority 1997, dated 2002).

Experiments:
Format in all cases: in vivo
[1] = tested on: Johnsongrass (Sorghum halepense, SORHA); test: Pre-emerge greenhouse herbicide test, phytotoxicity rating; settings: 14 days after application, rating scale 0-100
Method in brief: (§1)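 Seeds sown in sandy loam mix one day before track-sprayer application of compounds in acetone at 125–1000 g ai/ha (187 l/ha), then surface-watered to incorporate and bottom-watered. Visual rating 14 days after application on a 0–100 scale (0 = no damage, 100 = all plants dead).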

[2] = tested on: barnyardgrass (Echinochloa crusgalli, ECHCG); test: as above; settings: 14 days after application, rating scale 0-100
Method in brief: as §1

[3] = tested on: common ragweed (Ambrosia artemisiifolia L., AMBEL); test: as above; settings: 14 days after application, rating scale 0-100
Method in brief: as §1

[4] = tested on: green foxtail (Setaria viridis, SETVI); test: as above; settings: 14 days after application, rating scale 0-100
Method in brief: as §1

[5] = tested on: ivyleaf morningglory (Ipomoea hederacea, IPOHE); test: as above; settings: 14 days after application, rating scale 0-100
Method in brief: as §1

[6] = tested on: lambsquarters (Chenopodium album, CHEAL); test: as above; settings: 14 days after application, rating scale 0-100
Method in brief: as §1

[7] = tested on: large crabgrass (Digitaria sanguinalis, DIGSA); test: as above; settings: 14 days after application, rating scale 0-100
Method in brief: as §1

[8] = tested on: redroot pigweed (Amaranthus retroflexus, AMARE); test: as above; settings: 14 days after application, rating scale 0-100
Method in brief: as §1

[9] = tested on: sicklepod (Cassia obtusifolia, CASOB); test: as above; settings: 14 days after application, rating scale 0-100
Method in brief: as §1

[10] = tested on: velvetleaf (Abutilon theophrasti, ABUTH); test: as above; settings: 14 days after application, rating scale 0-100
Method in brief: as §1

[11] = tested on: field corn (Zea mays L., var. Dekalb 535, CORN); test: Pre-emerge greenhouse test, crop damage rating; settings: 14 days after application, rating scale 0-100
Method in brief: as §1

[12] = tested on: upland rice (Oryza sp., var.Tebonnet, RICE); test: Pre-emerge greenhouse test, crop damage rating; settings: 14 days after application, rating scale 0-100
Method in brief: as §1

[13] = tested on: soybean (Glycine max L., var. Pella 86, SOY); test: Pre-emerge greenhouse test, crop damage rating; settings: 14 days after application, rating scale 0-100
Method in brief: as §1

[14] = tested on: common ragweed (Ambrosia artemisiifolia L., AMBEL); test: Post-emerge greenhouse herbicide test, phytotoxicity rating; settings: 14 days after application
Method in brief: (§2)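 Compounds in acetone with 0.25% v/v non-ionic surfactant were track-sprayed at 187 l/ha over plants at the 2-3 leaf stage, at 63 to 1000 g ai/ha. Pots were bottom-watered. Injury was scored visually 14 days later on a 0-100 scale, where 0 is no damage and 100 is complete plant death.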

[15] = tested on: Johnsongrass (Sorghum halepense, SORHA); test: as above; settings: 14 days after application
Method in brief: as §2

[16] = tested on: barnyardgrass (Echinochloa crusgalli, ECHCG); test: as above; settings: 14 days after application
Method in brief: as §2

[17] = tested on: green foxtail (Setaria viridis, SETVI); test: as above; settings: 14 days after application
Method in brief: as §2

[18] = tested on: ivyleaf morningglory (Ipomoea hederacea, IPOHE); test: as above; settings: 14 days after application
Method in brief: as §2

[19] = tested on: lambsquarters (Chenopodium album, CHEAL); test: as above; settings: 14 days after application
Method in brief: as §2

[20] = tested on: large crabgrass (Digitaria sanguinalis, DIGSA); test: as above; settings: 14 days after application
Method in brief: as §2

[21] = tested on: redroot pigweed (Amaranthus retroflexus, AMARE); test: as above; settings: 14 days after application
Method in brief: as §2

[22] = tested on: sicklepod (Cassia obtusifolia, CASOB); test: as above; settings: 14 days after application
Method in brief: as §2

[23] = tested on: velvetleaf (Abutilon theophrasti, ABUTH); test: as above; settings: 14 days after application
Method in brief: as §2

[24] = tested on: field corn (Zea mays L., var. Dekalb 535, CORN); test: Post-emerge greenhouse test, crop damage rating; settings: 14 days after application
Method in brief: as §2

[25] = tested on: upland rice (Oryza sp., var.Tebonnet, RICE); test: Post-emerge greenhouse test, crop damage rating; settings: 14 days after application
Method in brief: as §2

[26] = tested on: soybean (Glycine max L., var. Pella 86, SOY); test: Post-emerge greenhouse test, crop damage rating; settings: 14 days after application
Method in brief: as §2

## O=c1n(CCCF)nnn1-c1cc(Oc2ncccc2[N+](=O)[O-])c(Cl)cc1F [Compound 6-2]
[1]; 125 g ai/ha
  phytotoxicity rating SORHA: 0
[1]; 500 g ai/ha
  phytotoxicity rating SORHA: 0
[2]; 125 g ai/ha
  phytotoxicity rating ECHCG: 0
[2]; 500 g ai/ha
  phytotoxicity rating ECHCG: 10
[3]; 125 g ai/ha
  phytotoxicity rating AMBEL: 30
[3]; 500 g ai/ha
  phytotoxicity rating AMBEL: 40
[4]; 125 g ai/ha
  phytotoxicity rating SETVI: 30
[4]; 500 g ai/ha
  phytotoxicity rating SETVI: 70
[5]; 125 g ai/ha
  phytotoxicity rating IPOHE: 10
[5]; 500 g ai/ha
  phytotoxicity rating IPOHE: 40
[6]; 125 g ai/ha
  phytotoxicity rating CHEAL: 100
[6]; 500 g ai/ha
  phytotoxicity rating CHEAL: 100
[7]; 125 g ai/ha
  phytotoxicity rating DIGSA: 0
[7]; 500 g ai/ha
  phytotoxicity rating DIGSA: 60
[8]; 125 g ai/ha
  phytotoxicity rating AMARE: 95
[8]; 500 g ai/ha
  phytotoxicity rating AMARE: 99
[9]; 125 g ai/ha
  phytotoxicity rating CASOB: 20
[9]; 500 g ai/ha
  phytotoxicity rating CASOB: 0
[10]; 125 g ai/ha
  phytotoxicity rating ABUTH: 90
[10]; 500 g ai/ha
  phytotoxicity rating ABUTH: 100
[11]; 125 g ai/ha
  crop damage rating CORN: 0
[11]; 500 g ai/ha
  crop damage rating CORN: 0
[12]; 125 g ai/ha
  crop damage rating RICE: 20
[12]; 500 g ai/ha
  crop damage rating RICE: 10
[13]; 125 g ai/ha
  crop damage rating SOY: 10
[13]; 500 g ai/ha
  crop damage rating SOY: 15
[14]; 63 g al/ha
  AMBEL phytotoxicity rating (0-100): 10
[14]; 500 g al/ha
  AMBEL phytotoxicity rating (0-100): 30
[15]; 63 g al/ha
  SORHA phytotoxicity rating (0-100): 0
[15]; 500 g al/ha
  SORHA phytotoxicity rating (0-100): 20
[16]; 63 g al/ha
  ECHCG phytotoxicity rating (0-100): 0
[16]; 500 g al/ha
  ECHCG phytotoxicity rating (0-100): 30
[17]; 63 g al/ha
  SETVI phytotoxicity rating (0-100): 10
[17]; 500 g al/ha
  SETVI phytotoxicity rating (0-100): 10
[18]; 63 g al/ha
  IPOHE phytotoxicity rating (0-100): 20
[18]; 500 g al/ha
  IPOHE phytotoxicity rating (0-100): 90
[19]; 63 g al/ha
  CHEAL phytotoxicity rating (0-100): 50
[19]; 500 g al/ha
  CHEAL phytotoxicity rating (0-100): 90
[20]; 63 g al/ha
  DIGSA phytotoxicity rating (0-100): 0
[20]; 500 g al/ha
  DIGSA phytotoxicity rating (0-100): 0
[21]; 63 g al/ha
  AMARE phytotoxicity rating (0-100): 40
[21]; 500 g al/ha
  AMARE phytotoxicity rating (0-100): 95
[22]; 63 g al/ha
  CASOB phytotoxicity rating (0-100): 0
[22]; 500 g al/ha
  CASOB phytotoxicity rating (0-100): 10
[23]; 63 g al/ha
  ABUTH phytotoxicity rating (0-100): 98
[23]; 500 g al/ha
  ABUTH phytotoxicity rating (0-100): 100
[24]; 63 g al/ha
  CORN crop damage rating (0-100): 5
[24]; 500 g al/ha
  CORN crop damage rating (0-100): 5
[25]; 63 g al/ha
  RICE crop damage rating (0-100): 0
[25]; 500 g al/ha
  RICE crop damage rating (0-100): 30
[26]; 63 g al/ha
  SOY crop damage rating (0-100): 20
[26]; 500 g al/ha
  SOY crop damage rating (0-100): 30

## N#Cc1cccnc1Oc1cc(-n2nnn(CCCF)c2=O)c(F)cc1Cl [Compound 6-4]
[1]; 125 g ai/ha
  phytotoxicity rating SORHA: 20
[1]; 500 g ai/ha
  phytotoxicity rating SORHA: 100
[2]; 125 g ai/ha
  phytotoxicity rating ECHCG: 0
[2]; 500 g ai/ha
  phytotoxicity rating ECHCG: 95
[3]; 125 g ai/ha
  phytotoxicity rating AMBEL: 0
[3]; 500 g ai/ha
  phytotoxicity rating AMBEL: 40
[4]; 125 g ai/ha
  phytotoxicity rating SETVI: 100
[4]; 500 g ai/ha
  phytotoxicity rating SETVI: 100
[5]; 125 g ai/ha
  phytotoxicity rating IPOHE: 40
[5]; 500 g ai/ha
  phytotoxicity rating IPOHE: 100
[6]; 125 g ai/ha
  phytotoxicity rating CHEAL: 100
[6]; 500 g ai/ha
  phytotoxicity rating CHEAL: 100
[7]; 125 g ai/ha
  phytotoxicity rating DIGSA: 70
[7]; 500 g ai/ha
  phytotoxicity rating DIGSA: 100
[8]; 125 g ai/ha
  phytotoxicity rating AMARE: 100
[8]; 500 g ai/ha
  phytotoxicity rating AMARE: 100
[9]; 125 g ai/ha
  phytotoxicity rating CASOB: 50
[9]; 500 g ai/ha
  phytotoxicity rating CASOB: 30
[10]; 125 g ai/ha
  phytotoxicity rating ABUTH: 100
[10]; 500 g ai/ha
  phytotoxicity rating ABUTH: 100
[11]; 125 g ai/ha
  crop damage rating CORN: 0
[11]; 500 g ai/ha
  crop damage rating CORN: 10
[12]; 125 g ai/ha
  crop damage rating RICE: 15
[12]; 500 g ai/ha
  crop damage rating RICE: 35
[13]; 125 g ai/ha
  crop damage rating SOY: 0
[13]; 500 g ai/ha
  crop damage rating SOY: 20
[14]; 63 g al/ha
  AMBEL phytotoxicity rating (0-100): 20
[14]; 500 g al/ha
  AMBEL phytotoxicity rating (0-100): 20
[15]; 63 g al/ha
  SORHA phytotoxicity rating (0-100): 0
[15]; 500 g al/ha
  SORHA phytotoxicity rating (0-100): 80
[16]; 63 g al/ha
  ECHCG phytotoxicity rating (0-100): 0
[16]; 500 g al/ha
  ECHCG phytotoxicity rating (0-100): 60
[17]; 63 g al/ha
  SETVI phytotoxicity rating (0-100): 20
[17]; 500 g al/ha
  SETVI phytotoxicity rating (0-100): 40
[18]; 63 g al/ha
  IPOHE phytotoxicity rating (0-100): 65
[18]; 500 g al/ha
  IPOHE phytotoxicity rating (0-100): 85
[19]; 63 g al/ha
  CHEAL phytotoxicity rating (0-100): 85
[19]; 500 g al/ha
  CHEAL phytotoxicity rating (0-100): 100
[20]; 63 g al/ha
  DIGSA phytotoxicity rating (0-100): 0
[20]; 500 g al/ha
  DIGSA phytotoxicity rating (0-100): 0
[21]; 63 g al/ha
  AMARE phytotoxicity rating (0-100): 75
[21]; 500 g al/ha
  AMARE phytotoxicity rating (0-100): 99
[22]; 63 g al/ha
  CASOB phytotoxicity rating (0-100): 15
[22]; 500 g al/ha
  CASOB phytotoxicity rating (0-100): 50
[23]; 63 g al/ha
  ABUTH phytotoxicity rating (0-100): 90
[23]; 500 g al/ha
  ABUTH phytotoxicity rating (0-100): 100
[24]; 63 g al/ha
  CORN crop damage rating (0-100): 10
[24]; 500 g al/ha
  CORN crop damage rating (0-100): 20
[25]; 63 g al/ha
  RICE crop damage rating (0-100): 20
[25]; 500 g al/ha
  RICE crop damage rating (0-100): 35
[26]; 63 g al/ha
  SOY crop damage rating (0-100): 20
[26]; 500 g al/ha
  SOY crop damage rating (0-100): 60
